# Data from paper PMC9813109, “Phase I dose-escalation study of milademetan in patients with relapsed or refractory acute myeloid leukemia” (International Journal of Hematology, 2022).
# “Also recorded” adds a separate entry of the source.
# What was measured:
# patients with R/R AML = tested on: patients with R/R AML
# Protocol: This phase I, open-label, and dose-escalation study conducted at eight centers in Japan recruited patients with R/R AML. Four fixed-dose milademetan schedules were planned (Supplementary Fig. 1A). Increases in the milademetan dose were guided by the modified continual reassessment method (mCRM), with a planned maximum dose of 160 mg/day (Supplementary Fig. 1B). Each cohort (90, 120, and 160 mg) consisted of three to six patients. The first cycle was defined as the dose-limiting toxicity (DLT) evaluation period where patients required hospitalization. The number of treatment cycles was not specified, and the study treatment for each patient was continued unless the discontinuation criteria were met.
# In this study, we only assessed the patients with schedule A‒milademetan was administered once daily on days 1–14 followed by a 14-day rest in a 28-day cycle.
# Relative dose intensity (in percentage) was calculated as a proportion of dose intensity/planned dose intensity (proportion of dose administered/total treatment duration). Safety assessments were completed by documenting the AEs, ECOG PS, laboratory data, body weight, vital signs, and the results of 12 lead ECGs. Serious adverse events (SAEs) were defined as any AEs that caused mortality, were life-threatening, required hospitalization or prolonged existing hospitalization, caused disability or incapacity, or represented other medical conditions. Patients were followed up until the AEs resolved.
# Patients were evaluated for DLT during the first 28 days of cycle 1, defined as any nonhematological AEs of grade ≥ 3 unless attributed to the primary disease course, complications, or concomitant medications. Nonhematological toxicities classified as DLTs were grade 4 AST/ALT, grade 3 AST/ALT lasting ≥ 3 days, grade 3 AST/ALT with grade ≥ 2 total bilirubin, or an inability to complete at least 75% of the prescribed milademetan doses in cycle 1 (28 days) due to grade ≥ 2 events. Hematological toxicities classified as DLTs included failure to recover neutrophil and platelet counts to ≥ 500/mm^3 and ≥ 20,000/mm^3, respectively, that delayed the initiation of cycle 2 for > 2 weeks. DLT evaluation findings were used to determine the MTD. AEs that were not classified as DLTs included grade 3 fatigue of < 3 days; grade 3 nausea or vomiting that resolved to grade ≤ 2 within 2 days after antiemetic therapy; grade 3 diarrheas that resolved to grade ≤ 2 within 2 days after antidiarrheal therapy; and alopecia, febrile neutropenia, and transient laboratory abnormalities either without symptoms or requiring continuous treatment. Examples of non-DLT AEs were grade ≥ 3 alkaline phosphatases, uric acid, amylase, lipase, or hyponatremia that resolved within 72 h of onset. The Common Terminology Criteria for Adverse Events (version 5.0) were used for grading, and each AE was coded using the Medical Dictionary for Regulatory Activities (version 21.1). Criteria for drug dose reduction or interruption are described in Supplementary material.
# All patients who received at least one milademetan dose were included in the safety analysis set. […] The efficacy analysis set included all patients who received at least one milademetan dose and underwent efficacy evaluation at least once after treatment initiation. […] The biomarker analysis set included all patients who received at least one milademetan dose, whose specimens were collected for biomarker studies, and who had available measurement data. Following the first cycle, doses for subsequent cohorts were guided by an mCRM based on a Bayesian logistic regression model incorporating the escalation with the overdose control principle, clinical evaluation of the toxicological profile, and pharmacokinetics and pharmacodynamics information.
# [1] = tested on: patients with solid tumors or lymphomas; settings: QD 21/28-day schedule, Japanese phase I; cited from earlier work
compound,measurement,setting,value
CC1(C)CCC2(CC1)N[C@@H](C(=O)N[C@@H]1CC[C@@H](C(N)=O)OC1)[C@H](c1ccnc(Cl)c1F)[C@]21C(=O)Nc2cc(Cl)ccc21 [milademetan],Deaths or AEs leading to treatment discontinuation,patients with R/R AML; 14 patients,No deaths or AEs leading to treatment discontinuation occurred; also recorded: No death or AEs that caused treatment discontinuation were noted
same,"Skin infection, All grades",patients with R/R AML; Total (n = 14),1 (7.1) n (%)
same,"Skin infection, Grade ≥ 3",patients with R/R AML; Total (n = 14),1 (7.1) n (%)
same,"Anemia, All grades","patients with R/R AML; human, in vivo",5 (35.7) n (%)
same,"Anemia, Grade ≥ 3","patients with R/R AML; human, in vivo",5 (35.7) n (%)
same,"Anemia, patients with TEAE regardless of causality","patients with R/R AML; human, in vivo",35.7%
same,"Decreased appetite, All grades","patients with R/R AML; human, in vivo",9 (64.3) n (%)
same,"Decreased appetite, Grade ≥ 3","patients with R/R AML; human, in vivo",1 (7.1) n (%)
same,"Decreased appetite, patients with TEAE regardless of causality","patients with R/R AML; human, in vivo",64.3%
same,"Diarrhea, All grades","patients with R/R AML; human, in vivo",3 (21.4) n (%)
same,"Diarrhea, Grade ≥ 3","patients with R/R AML; human, in vivo",1 (7.1) n (%)
same,"Dry mouth, All grades","patients with R/R AML; human, in vivo",3 (21.4) n (%)
same,"Dry mouth, Grade ≥ 3","patients with R/R AML; human, in vivo",0 (0.0) n (%)
same,"Febrile neutropenia, All grades","patients with R/R AML; human, in vivo",7 (50.0) n (%)
same,"Febrile neutropenia, Grade ≥ 3","patients with R/R AML; human, in vivo",7 (50.0) n (%)
same,"Febrile neutropenia, patients with TEAE regardless of causality","patients with R/R AML; human, in vivo",50%
same,"Hypokalemia, All grades","patients with R/R AML; human, in vivo",4 (28.6) n (%)
same,"Hypokalemia, Grade ≥ 3","patients with R/R AML; human, in vivo",1 (7.1) n (%)
same,"Leukopenia, All grades","patients with R/R AML; human, in vivo",1 (7.1) n (%)
same,"Leukopenia, Grade ≥ 3","patients with R/R AML; human, in vivo",1 (7.1) n (%)
same,"Malaise, All grades","patients with R/R AML; human, in vivo",3 (21.4) n (%)
same,"Malaise, Grade ≥ 3","patients with R/R AML; human, in vivo",0 (0.0) n (%)
same,"Nausea, All grades","patients with R/R AML; human, in vivo",6 (42.9) n (%)
same,"Nausea, Grade ≥ 3","patients with R/R AML; human, in vivo",0 (0.0) n (%)
same,"Nausea, patients with TEAE regardless of causality","patients with R/R AML; human, in vivo",42.9%
same,"Neutropenia, All grades","patients with R/R AML; human, in vivo",2 (14.3) n (%)
same,"Neutropenia, Grade ≥ 3","patients with R/R AML; human, in vivo",2 (14.3) n (%)
same,"Neutrophil count decreased, All grades","patients with R/R AML; human, in vivo",1 (7.1) n (%)
same,"Neutrophil count decreased, Grade ≥ 3","patients with R/R AML; human, in vivo",1 (7.1) n (%)
same,Number of patients with SAEs,"patients with R/R AML; human, in vivo",4 patients
same,Patients with TEAEs leading to study treatment interruption,"patients with R/R AML; human, in vivo",21.4%
same,Patients with a TEAE that required dose reduction (acute kidney injury),"patients with R/R AML; human, in vivo",7.1%
same,Patients with grade ≥ 3 TEAEs,"patients with R/R AML; human, in vivo",71.4%
same,"Pharyngitis, All grades","patients with R/R AML; human, in vivo",1 (7.1) n (%)
same,"Pharyngitis, Grade ≥ 3","patients with R/R AML; human, in vivo",1 (7.1) n (%)
same,"Platelet count decreased, All grades","patients with R/R AML; human, in vivo",3 (21.4) n (%)
same,"Platelet count decreased, Grade ≥ 3","patients with R/R AML; human, in vivo",3 (21.4) n (%)
same,"Pneumonia, All grades","patients with R/R AML; human, in vivo",4 (28.6) n (%)
same,"Pneumonia, Grade ≥ 3","patients with R/R AML; human, in vivo",3 (21.4) n (%)
same,Serious TEAE,"patients with R/R AML; human, in vivo",4 (28.6) n (%)
same,"Stomatitis, All grades","patients with R/R AML; human, in vivo",3 (21.4) n (%)
same,"Stomatitis, Grade ≥ 3","patients with R/R AML; human, in vivo",0 (0.0) n (%)
same,TEAE,"patients with R/R AML; human, in vivo",13 (92.9) n (%)
same,TEAE by CTCAE grade ≤ 2,"patients with R/R AML; human, in vivo",3 (21.4) n (%)
same,TEAE by CTCAE grade ≥ 3,"patients with R/R AML; human, in vivo",10 (71.4) n (%)
same,TEAE leading to treatment interruption: decreased appetite,"patients with R/R AML; human, in vivo",1 n
same,TEAE leading to treatment interruption: decreased neutrophil count,"patients with R/R AML; human, in vivo",1 n
same,TEAE leading to treatment interruption: decreased platelet count,"patients with R/R AML; human, in vivo",1 n
same,TEAE leading to treatment interruption: diarrhea,"patients with R/R AML; human, in vivo",1 n
same,TEAE leading to treatment interruption: dysgeusia,"patients with R/R AML; human, in vivo",1 n
same,TEAE leading to treatment interruption: febrile neutropenia,"patients with R/R AML; human, in vivo",2 n
same,"Thrombocytopenia, All grades","patients with R/R AML; human, in vivo",4 (28.6) n (%)
same,"Thrombocytopenia, Grade ≥ 3","patients with R/R AML; human, in vivo",4 (28.6) n (%)
same,Tolerability,"patients with R/R AML; human, in vivo",well tolerated up to 160 mg
same,"Vomiting, All grades","patients with R/R AML; human, in vivo",4 (28.6) n (%)
same,"Vomiting, Grade ≥ 3","patients with R/R AML; human, in vivo",0 (0.0) n (%)
same,"White blood cell count decreased, All grades","patients with R/R AML; human, in vivo",1 (7.1) n (%)
same,"White blood cell count decreased, Grade ≥ 3","patients with R/R AML; human, in vivo",1 (7.1) n (%)
same,Recommended dose,"patients with R/R AML; human, in vivo, 28 days",160 mg
same,"Dose dependence of frequency of TEAEs that were grade ≥ 3, serious, or led to dose reduction/treatment interruption",patients with R/R AML; in vivo,No dose-dependent increase was observed
same,Grade 4 TEAE: decreased neutrophil count,patients with R/R AML; in vivo,one
same,Grade 4 TEAE: decreased platelet count,patients with R/R AML; in vivo,three
same,Grade 4 TEAE: neutropenia,patients with R/R AML; in vivo,two
same,Grade 4 TEAE: thrombocytopenia,patients with R/R AML; in vivo,two
same,Number of reported SAEs (serious TEAEs),patients with R/R AML; in vivo,Five
same,"Other laboratory parameters (hematology, blood chemistry, urinalysis), vital signs, ECG parameters",patients with R/R AML; in vivo,No clinically relevant changes from baseline or consistent trends were observed
same,SAE: febrile neutropenia,patients with R/R AML; in vivo,two
same,SAE: pneumonia,patients with R/R AML; in vivo,three
same,Maximum tolerated dose (MTD),"patients with R/R AML; up to 160 mg, QD 14/28 schedule",not reached
same,Maximum tolerated dose (MTD),[1],90 mg
